From patent US9932331B2, “Phenyl tetrahydroisoquinoline compound substituted with heteroaryl” (TAISHO PHARMACEUTICAL CO., LTD, priority 2014, dated 2018)
pIC50: −log10 of the molar value. Where a name gives a salt, the structure may show the parent alone.

Target: T1, human NHE3 (Homo sapiens, UniProt P48764)
T1 sequence (P48764 26-834): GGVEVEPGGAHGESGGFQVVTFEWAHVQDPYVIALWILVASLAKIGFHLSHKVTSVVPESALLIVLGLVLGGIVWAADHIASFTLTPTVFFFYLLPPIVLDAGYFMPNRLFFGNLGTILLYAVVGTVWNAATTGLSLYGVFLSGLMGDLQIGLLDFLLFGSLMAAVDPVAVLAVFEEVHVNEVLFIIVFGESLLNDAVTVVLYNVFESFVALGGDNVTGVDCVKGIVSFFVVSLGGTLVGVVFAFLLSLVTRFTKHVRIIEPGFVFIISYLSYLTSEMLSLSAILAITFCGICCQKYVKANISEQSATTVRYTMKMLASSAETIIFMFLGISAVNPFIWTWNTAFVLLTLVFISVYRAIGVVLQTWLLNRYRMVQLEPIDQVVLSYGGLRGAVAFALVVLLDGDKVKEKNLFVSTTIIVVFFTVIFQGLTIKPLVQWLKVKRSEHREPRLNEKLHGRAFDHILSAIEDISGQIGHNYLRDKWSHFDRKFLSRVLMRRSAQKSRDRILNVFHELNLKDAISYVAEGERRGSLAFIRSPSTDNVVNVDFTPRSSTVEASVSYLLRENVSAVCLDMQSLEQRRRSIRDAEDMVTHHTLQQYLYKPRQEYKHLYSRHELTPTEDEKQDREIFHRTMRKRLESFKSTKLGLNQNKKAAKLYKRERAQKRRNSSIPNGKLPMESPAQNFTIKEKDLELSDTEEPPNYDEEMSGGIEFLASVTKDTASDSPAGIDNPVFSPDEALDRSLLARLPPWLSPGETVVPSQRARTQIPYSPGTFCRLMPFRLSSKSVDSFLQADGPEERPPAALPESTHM
Assay: NHE3 inhibition test (recovery of intracellular pH in cell line stably expressing human NHE3)
Format: cell-based
Conditions: OK cells deficient in endogenous NHE stably expressing human NHE3; BCECF fluorescence, initial rate of pH recovery; read-out: human NHE3 inhibitory activity IC50
Summary of the method: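 IC50 is the concentration halving the initial rate of Na-triggered intracellular pH recovery, tracked by BCECF fluorescence, in NH4Cl-acidified cells. Cells: NHE-deficient OK line stably transfected with human NHE3; compound added in Na-free pH 7.4 buffer.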

Row | pIC50 | Compound
1 | 8.48 | CN1Cc2c(Cl)cc(Cl)cc2[C@H](c2cccc(-c3cn(CCOCCOCCOCCNC(=O)NCCNC(=O)NCCOCCOCCOCCn4cc(-c5cccc([C@@H]6CN(C)Cc7c(Cl)cc(Cl)cc76)c5)nn4)nn3)c2)C1 [Example 7-34, 1,1′-Ethane-1,2-diylbis {3-[2-(2-{2-[2-(4-{3-[(4S)-6,8-dichloro-2-methyl-1,2,3,4-tetrahydroisoquinolin-4-yl]phenyl}-1H-1,2,3-triazol-1-yl)ethoxy]ethoxy}ethoxy)ethyl]urea}hydrochloride]
2 | 8.36 | CN1Cc2c(Cl)cc(Cl)cc2[C@H](c2cccc(-c3cn(CCOCCOCCOCCNC(=O)NCCCNC(=O)NCCOCCOCCOCCn4cc(-c5cccc([C@@H]6CN(C)Cc7c(Cl)cc(Cl)cc76)c5)nn4)nn3)c2)C1 [Example 7-35, 1,1′-Propane-1,3-diylbis {3-[2-(2-{2-[2-(4-{3-[(4S)-6,8-dichloro-2-methyl-1,2,3,4-tetrahydroisoquinolin-4-yl]phenyl}-1H-1,2,3-triazol-1-yl)ethoxy]ethoxy}ethoxy)ethyl]urea}hydrochloride]
3 | 7.67 | CN1Cc2c(Cl)cc(Cl)cc2[C@H](c2cccc(-c3cn(CCOCCOCCOCCNC(=O)NCCOCCOCCOCCn4cc(-c5cccc([C@@H]6CN(C)Cc7c(Cl)cc(Cl)cc76)c5)nn4)nn3)c2)C1 [Example 7-36, 1,3-Bis[2-(2-{2-[2-(4-{3-[(4S)-6,8-dichloro-2-methyl-1,2,3,4-tetrahydroisoquinolin-4-yl]phenyl}-1H-1,2,3-triazol-1-yl)ethoxy]ethoxy}ethoxy)ethyl]urea hydrochloride]
4 | 8.18 | CN1Cc2c(Cl)cc(Cl)cc2[C@H](c2cccc(-c3cn(CCOCCOCCOCCNC(=O)NCCOCCNC(=O)NCCOCCOCCOCCn4cc(-c5cccc([C@@H]6CN(C)Cc7c(Cl)cc(Cl)cc76)c5)nn4)nn3)c2)C1 [Example 7-37, 1,1′-(Oxydiethane-2,1-diyl)bis{3-[2-(2-{2-[2-(4-{3-[(4S)-6,8-dichloro-2-methyl-1,2,3,4-tetrahydroisoquinolin-4-yl]phenyl}-1H-1,2,3-triazol-1-yl)ethoxy]ethoxy}ethoxy)ethyl]urea}hydrochloride]
5 | 8.42 | CN1Cc2c(Cl)cc(Cl)cc2[C@H](c2cccc(-c3cnc(NCCOCCOCCOCCNC(=O)NCCCCNC(=O)NCCOCCOCCOCCNc4ncc(-c5cccc([C@@H]6CN(C)Cc7c(Cl)cc(Cl)cc76)c5)cn4)nc3)c2)C1 [Example 7-38, 1,1′-Butane-1,4-diylbis(3-{2-[2-(2-{2-[(5-{3-[(4S)-6,8-dichloro-2-methyl-1,2,3,4-tetrahydroisoquinolin-4-yl]phenyl}pyrimidin-2-yl)amino]ethoxy}ethoxy)ethoxy]ethyl}urea) hydrochloride]
6 | 5.26 | CN1Cc2c(Cl)cc(Cl)cc2C(c2cccc(-c3ccnc(NCCOCCOCCNC(=O)Nc4ccc(NC(=O)NCCOCCOCCNc5cc(-c6cccc(C7CN(C)Cc8c(Cl)cc(Cl)cc87)c6)ccn5)cc4)c3)c2)C1 (stereo not shown) [Example 7-41, 1,1′-Benzene-1,4-diylbis[3-(2-{2-[2-({4-[3-(6,8-dichloro-2-methyl-1,2,3,4-tetrahydroisoquinolin-4-yl)phenyl]pyridin-2-yl}amino)ethoxy]ethoxy}ethyl)urea]trifluoroacetate]
7 | 7.83 | CN1Cc2c(Cl)cc(Cl)cc2[C@H](c2cccc(-c3ccc(NCCOCCOCCNC(=O)CCC(=O)NCCOCCOCCNc4ccc(-c5cccc([C@@H]6CN(C)Cc7c(Cl)cc(Cl)cc76)c5)cn4)nc3)c2)C1 [Example 8-1, N,N′-Bis[2-(2-{2-[(5-{3-[(4S)-6,8-dichloro-2-methyl-1,2,3,4-tetrahydroisoquinolin-4-yl]phenyl}pyridin-2-yl)amino]ethoxy}ethoxy)ethyl]butanediamide hydrochloride]
